This is an account of results in US20250066413A1, “COMPOSITIONS FOR TREATMENT OF INFLAMMATION” (Metro International Biotech, LLC, priority 2022, published 2025).

Holding throughout (assay type): cell-based
In one test the test system is AML12 Cells. Nature of the test: NAD Elevation Assay (NAD Cellular Assay), AML12 cells. Conditions: at 0.4-2 mM compound. Here is the method:
(§1) Compounds were tested in an NAD Cellular Assay according to the following protocol. Jurkat cells (50,000 per in 100 microliters of RPMI media) were added to wells of a 96 well, conical bottomed plate. The cells were allowed to recover for 3 h in culture. A 16 microliter aliquot of a 100 mM compound stock solution was diluted with 784 microliters of medium and 10% FBS to give 800 microliters of a 2 mM compound treatment solution. The compound treatment solution was added to the cells for a final concentration of 1 mM compound (n=6 wells for each compound.) As a parallel control, nicotinamide mononucleotide (NMN) was added to cells at a final concentration of 2 mM (n=6). The plates were incubated for 24 hours, then spun at 1000 rpm for 10 min. The medium was removed, then the cells were washed with fresh PBS and spun again. […] The NAD concentration in each well was determined using a commercially available assay according to the kit instructions (e.g. Promega NAD/NADH-Glo™ Assay.) The Pierce BCA protein assay was run according to the kit instructions (e.g. ThermoScientific Catalog number 23225). […]
(§2) Assays with other cell types were run similarly, using the appropriate compound and NMN dilutions. Cell counts were adjusted as necessary to provide a signal within the reading range of the protein and NAD assay kits.

Another test has as its system Jurkat cells. Nature of the test: NAD Elevation Assay (NAD Cellular Assay), Jurkat cells. Conditions: 1 mM compound, 24 hours. Here is the method: as §1, with “again. The PBS medium was removed, then the cells were washed one more time with PBS and spun. The liquid was removed from each well via pipette, avoiding touching the cell pellet. The cells were lysed with 75 microliters of 0.5% DTAB.” for “again.”

The next test concerns HEPG2 Cells. Nature of the test: NAD Elevation Assay (NAD Cellular Assay), HEPG2 cells. The procedure: (§3) Compounds were tested in an NAD Cellular Assay according to the following protocol. Jurkat cells (50,000 per in 100 microliters of RPMI media) were added to wells of a 96 well, conical bottomed plate. The cells were allowed to recover for 3 h in culture. A 16 microliter aliquot of a 100 mM compound stock solution was diluted with 784 microliters of medium and 10% FBS to give 800 microliters of a 2 mM compound treatment solution. The compound treatment solution was added to the cells for a final concentration of 1 mM compound (n=6 wells for each compound.) As a parallel control, nicotinamide mononucleotide (NMN) was added to cells at a final concentration of 2 mM (n=6). The plates were incubated for 24 hours, then spun at 1000 rpm for 10 min. The medium was removed, then the cells were washed with fresh PBS and spun again. The PBS medium was removed, then the cells were washed one more time with PBS and spun. The liquid was removed from each well via pipette, avoiding touching the cell pellet. The cells were lysed with 75 microliters of 0.5% DTAB. 25 microliters of the lysate was added to each of two flat bottomed plates. One plate was used for a BCA protein assay (clear), and the other plate was used for the NAD assay (clear bottom, white walled). The NAD concentration in each well was determined using a commercially available assay according to the kit instructions (e.g. Promega NAD/NADH-Glo™ Assay.) The Pierce BCA protein assay was run according to the kit instructions (e.g. ThermoScientific Catalog number 23225). NAD levels were normalized to total protein and reported as a multiple of the NAD level in untreated cells.
as §2

The test system of a further test is NDF Cells. Nature of the test: NAD Elevation Assay (NAD Cellular Assay), NDF cells. The settings on record: 0.25 mM compound. The procedure:
as §3, §2

The structures appear in SMILES notation.

Consider `Cn1cnc2c1c(=O)n(CC(=O)OCCCOC(=O)c1ccc[n+]([C@@H]3O[C@H](CO)[C@@H](O)[C@H]3O)c1)c(=O)n2C.O=S(=O)([O-])C(F)(F)F` [Compound 1, 1-((2R,3R,4S,5R)-3,4-dihydroxy-5-(hydroxymethyl)tetrahydrofuran-2-yl)-3-((3-(2-(3,7-dimethyl-2,6-dioxo-2,3,6,7-tetrahydro-1H-purin-1-yl)acetoxy)propoxy)carbonyl)pyridin-1-ium trifluoromethanesulfonate], for which the “NAD Elevation Assay” value in the test with AML12 Cells was “Active at 0.4-2”.

On to `Cn1c(=O)c2c(ncn2CCOC(=O)c2ccc[n+]([C@@H]3O[C@H](CO)[C@@H](O)[C@H]3O)c2)n(C)c1=O.O=S(=O)([O-])C(F)(F)F` [Compound 2, 1-((2R,3R,4S,5R)-3,4-dihydroxy-5-(hydroxymethyl)tetrahydrofuran-2-yl)-3-((2-(1,3-dimethyl-2,6-dioxo-1,2,3,6-tetrahydro-7H-purin-7-yl)ethoxy)carbonyl)pyridin-1-ium trifluoromethanesulfonate], for which the “NAD Elevation Assay (NAD level normalized to total protein, multiple of the NAD level in untreated cells)” value in the test with Jurkat cells was 2.9x @1.

In the case of `Cn1c(=O)c2c(ncn2CCOC(=O)c2ccc[n+]([C@@H]3O[C@H](COP(=O)([O-])O)[C@@H](O)[C@H]3O)c2)n(C)c1=O` [Compound 2P, ((2R,3S,4R,5R)-5-(3-((2-(1,3-dimethyl-2,6-dioxo-1,2,3,6-tetrahydro-7H-purin-7-yl)ethoxy)carbonyl)pyridin-1-ium-1-yl)-3,4-dihydroxytetrahydrofuran-2-yl)methyl hydrogen phosphate], the “NAD Elevation Assay (NAD level normalized to total protein, multiple of the NAD level in untreated cells)” value in the test with HEPG2 Cells (2 mM compound) turned out to be 1.6x @2.

On to `Cn1cnc2c1c(=O)n(CCOC(=O)c1ccc[n+]([C@@H]3O[C@H](CO)[C@@H](O)[C@H]3O)c1)c(=O)n2C.O=S(=O)([O-])C(F)(F)F` [Compound 3, 1-((2R,3R,4S,5R)-3,4-dihydroxy-5-(hydroxymethyl)tetrahydrofuran-2-yl)-3-((2-(3,7-dimethyl-2,6-dioxo-2,3,6,7-tetrahydro-1H-purin-1-yl)ethoxy)carbonyl)pyridin-1-ium trifluoromethanesulfonate], for which the “NAD Elevation Assay” value with AML12 Cells was “Active at 0.4-2”.

Consider `Cn1cnc2c1c(=O)n(CCOC(=O)c1ccc[n+]([C@@H]3O[C@H](COP(=O)([O-])O)[C@@H](O)[C@H]3O)c1)c(=O)n2C` [Compound 4, ((2R,3S,4R,5R)-5-(3-((2-(3,7-dimethyl-2,6-dioxo-2,3,6,7-tetrahydro-1H-purin-1-yl)ethoxy)carbonyl)pyridin-1-ium-1-yl)-3,4-dihydroxytetrahydrofuran-2-yl)methyl hydrogen phosphate], for which the “NAD Elevation Assay (NAD level normalized to total protein, multiple of the NAD level in untreated cells)” value in the test with HEPG2 Cells (0.1 mM compound) worked out at 2.1x @0.1.

For the molecule `Cn1cnc2c1c(=O)n(CCCOC(=O)c1ccc[n+]([C@@H]3O[C@H](COP(=O)([O-])O)[C@@H](O)[C@H]3O)c1)c(=O)n2C` [Compound 5P, ((2R,3S,4R,5R)-5-(3-((3-(3,7-dimethyl-2,6-dioxo-2,3,6,7-tetrahydro-1H-purin-1-yl)propoxy)carbonyl)pyridin-1-ium-1-yl)-3,4-dihydroxytetrahydrofuran-2-yl)methyl hydrogen phosphate], in the test on NDF Cells, the “NAD Elevation Assay (NAD level normalized to total protein, multiple of the NAD level in untreated cells)” value amounted to 2.2x @0.25.

On to `Cn1c(=O)c2c(ncn2CC(=O)OCCCOC(=O)c2ccc[n+]([C@@H]3O[C@H](COP(=O)([O-])O)[C@@H](O)[C@H]3O)c2)n(C)c1=O` [Compound 6P, ((2R,3S,4R,5R)-5-(3-((3-(2-(1,3-dimethyl-2,6-dioxo-1,2,3,6-tetrahydro-7H-purin-7-yl)acetoxy)propoxy)carbonyl)pyridin-1-ium-1-yl)-3,4-dihydroxytetrahydrofuran-2-yl)methyl hydrogen phosphate], for which, in the test on NDF Cells, the “NAD Elevation Assay (NAD level normalized to total protein, multiple of the NAD level in untreated cells)” value worked out at 2.0x @0.25.

On to `CCCn1cnc2c1c(=O)n(CCOC(=O)c1ccc[n+]([C@@H]3O[C@H](COP(=O)([O-])O)[C@@H](O)[C@H]3O)c1)c(=O)n2C` [Compound 7P, ((2R,3S,4R,5R)-3,4-dihydroxy-5-(3-((2-(3-methyl-2,6-dioxo-7-propyl-2,3,6,7-tetrahydro-1H-purin-1-yl)ethoxy)carbonyl)pyridin-1-ium-1-yl)tetrahydrofuran-2-yl)methyl hydrogen phosphate], for which, in the test with NDF Cells, the “NAD Elevation Assay (NAD level normalized to total protein, multiple of the NAD level in untreated cells)” value turned out to be 1.9x @0.25.

`Cn1cnc2c1c(=O)n(CCNC(=O)c1ccc[n+]([C@@H]3O[C@H](COP(=O)([O-])O)[C@@H](O)[C@H]3O)c1)c(=O)n2C` [Compound 9P, ((2R,3S,4R,5R)-5-(3-((2-(3,7-dimethyl-2,6-dioxo-2,3,6,7-tetrahydro-1H-purin-1-yl)ethyl)carbamoyl)pyridin-1-ium-1-yl)-3,4-dihydroxytetrahydrofuran-2-yl)methyl hydrogen phosphate]: the “NAD Elevation Assay (NAD level normalized to total protein, multiple of the NAD level in untreated cells)” value in the test with HEPG2 Cells (0.25 mM compound) was found to be 1.9x @0.25.

For `CCn1c(=O)c2c(ncn2CCOC(=O)c2ccc[n+]([C@@H]3O[C@H](COP(=O)([O-])O)[C@@H](O)[C@H]3O)c2)n(CC)c1=O` [Compound 11P, ((2R,3S,4R,5R)-5-(3-((2-(1,3-diethyl-2,6-dioxo-1,2,3,6-tetrahydro-7H-purin-7-yl)ethoxy)carbonyl)pyridin-1-ium-1-yl)-3,4-dihydroxytetrahydrofuran-2-yl)methyl hydrogen phosphate], the “NAD Elevation Assay (NAD level normalized to total protein, multiple of the NAD level in untreated cells)” value in the test on HEPG2 Cells (2 mM compound) came to 1.3x @2.
